Reference: ChEMBL document CHEMBL4837230, “Thiophene-2-carboxamide derivatives of anthraquinone: A new potent antitumor chemotype” (Eur J Med Chem, 2021)

Assays:
K562 [1] = test: Induction of cell cycle arrest in human K562 cells assessed as increase in accumulation at S phase at 2.5 uM after 6 hrs by flow cytometric analysis (reference value: 37%); type: functional
K562 [2] = test: Cytotoxicity in human K562 cells assessed as reduction in cell viability at 1 uM incubated for 72 hrs by propidium iodide staining based flow cytometric analysis; type: functional

`N[C@H]1CCN(C(=O)c2cc3c(O)c4c(c(O)c3s2)C(=O)c2ccccc2C4=O)C1` was tested, and the Activity (K562 [1]) was 29.8% and the Activity (K562 [2]) was 79.9%.
